Measurements: PubChem BioAssay (NCI)
“And” between values parts separate entries of the source, which are not always exact repeats. Identical values can stand only once.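 Test compounds were applied to cells in 96-well plates for 48 hours at 5 doses. At the GI50, growth is halved. At the TGI there is no net growth.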

Columns and labels:
Experiment in all cases: NCI anticancer screen, dose series, 48 h
UACC-257 melanoma = tested on: UACC-257 melanoma
SF-539 CNS = tested on: SF-539 CNS
LOX IMVI melanoma = tested on: LOX IMVI melanoma
CCRF-CEM leukemia = tested on: CCRF-CEM leukemia
NCI/ADR-RES ovarian = tested on: NCI/ADR-RES ovarian
HCT-116 colon = tested on: HCT-116 colon
HL-60(TB) leukemia = tested on: HL-60(TB) leukemia
UACC-62 melanoma = tested on: UACC-62 melanoma
OVCAR-8 ovarian = tested on: OVCAR-8 ovarian
MDA-N = tested on: MDA-N
SW-620 colon = tested on: SW-620 colon
DU-145 prostate = tested on: DU-145 prostate
MCF7 breast = tested on: MCF7 breast
SR leukemia = tested on: SR leukemia

Compound | TGI (UACC-257 melanoma) | TGI (SF-539 CNS) | TGI (LOX IMVI melanoma) | TGI (CCRF-CEM leukemia) | TGI (NCI/ADR-RES ovarian) | TGI (HCT-116 colon) | TGI (HL-60(TB) leukemia) | TGI (UACC-62 melanoma) | TGI (OVCAR-8 ovarian) | TGI (MDA-N) | TGI (SW-620 colon) | TGI (DU-145 prostate) | TGI (MCF7 breast) | TGI (SR leukemia) | GI50 (NCI/ADR-RES ovarian) | GI50 (HL-60(TB) leukemia) | GI50 (UACC-62 melanoma) | GI50 (OVCAR-8 ovarian) | GI50 (MCF7 breast)
CC(=O)c1csc2c1C(=O)c1scc(C(C)=O)c1C2=O | 2.41 µM | 3.28 µM | 2.9 µM | 1.82 µM | 3.9 µM | 4.85 µM | 0.43 µM | 3.56 µM | 3.09 µM | 0.319 µM | 3.73 µM | 3.34 µM | 3.31 µM |  |  |  |  |  | 
O=C1C(Cl)C(c2ccccc2)N1n1cnc2ccccc2c1=O (stereo not drawn) | > 100 µM |  | > 100 µM | > 100 µM |  | > 100 µM | > 100 µM | > 100 µM | > 100 µM |  | > 100 µM |  |  | > 100 µM |  |  |  |  | 
COc1ccc(C[N+]23C(CC[C@H]2c2ccccc2)CC[C@H]3c2ccccc2)cc1 (stereo partly drawn) | 50.5 µM |  | 44.7 µM | > 100 µM |  | > 100 µM | 24.7 µM |  | > 100 µM | 65.4 µM | > 100 µM | 77.8 µM | 78.9 µM | 41.4 µM |  |  |  |  | 
C=C1C(=O)O[C@H]2[C@H]1[C@@H](OC(=O)C=C(C)C)CC1=C[C@@H](C[C@@]3(C)O[C@@H]23)OC1=O | 6.88 µM | 5.29 µM |  | 1120 µM | 6.18 µM and 13.4 µM | 16.5 µM | 0.977 µM and 4.9 µM | 12.8 µM and 31.6 µM | 7.5 µM |  | 2.77 µM |  | 4.39 µM and 6.93 µM |  | 3.89 µM | 0.292 µM and 2.24 µM | 11.3 µM | 1.99 µM | 0.603 µM and 2.59 µM
Cc1ccc(C2CC(c3ccco3)=NN2c2ccccc2)o1 (stereo not drawn) |  | > 100 µM | > 100 µM | > 100 µM |  | > 100 µM | > 100 µM | > 100 µM | > 100 µM |  | > 100 µM |  |  | > 100 µM |  |  |  |  | 
CC(C)(C)C(=O)/C=C/c1ccc(Oc2ccccc2)cc1 | 42.6 µM |  |  | 40.5 µM |  | 34.7 µM |  |  | > 100 µM |  | 36.1 µM |  |  |  |  |  |  |  | 
CC1=C(Br)C(Br)=C(C)S1=O | 32.1 µM | 27.7 µM | 27.8 µM | 6.66 µM | > 100 µM | 18.2 µM | 18.1 µM | 85.8 µM | > 100 µM | 28.7 µM | > 100 µM |  | > 100 µM | 19.3 µM |  |  |  |  | 
C/C(=C1/CCCC2(N=NCC2c2ccccc2)C1=O)c1ccccc1 (stereo not drawn) | 52.7 µM | > 100 µM | > 100 µM | 66.1 µM |  | 53.3 µM | 25.6 µM | 47.7 µM | 64.2 µM |  | > 100 µM |  |  | 51.2 µM |  |  |  |  | 
CN1CCOC1(C)CO (stereo not drawn) | > 100 µM | > 100 µM | > 100 µM | > 100 µM | > 100 µM | > 100 µM | > 100 µM | > 100 µM | > 100 µM | > 100 µM | > 100 µM |  | > 100 µM | > 100 µM |  |  |  |  | 
COc1c(C)c2c(c(C)c1Cl)Oc1c(C=O)c(O)c(Cl)c(C)c1C(=O)O2 | > 100 µM | 39.7 µM | 90.7 µM | 72.5 µM |  | 61.9 µM | 57.8 µM | 63 µM | > 100 µM |  | > 100 µM |  |  | 89.4 µM |  |  |  |  | 
COc1cc2c(cc1OCc1ccccc1)CNCC2 | > 100 µM | > 100 µM | > 100 µM | > 100 µM |  | > 100 µM | > 100 µM | > 100 µM | > 100 µM |  | > 100 µM |  |  |  |  |  |  |  | 
Cc1cccc(NC(=O)/C=C/c2ccc(N(CCC#N)CCC#N)cc2C)c1 | > 100 µM | > 100 µM | > 100 µM | > 100 µM |  | > 100 µM | > 100 µM | > 100 µM | > 100 µM |  | > 100 µM |  |  |  |  |  |  |  | 
N#CSc1nc[nH]c1C(N)=O | > 100 µM | > 100 µM | > 100 µM | 14.4 µM | > 100 µM | > 100 µM | 6.86 µM | > 100 µM | > 100 µM | > 100 µM | > 100 µM | > 100 µM | > 100 µM |  |  |  |  |  | 
C=CCN1C[C@H](C)N([C@H](c2ccc(C(=O)N(CC)CCO)cc2)c2cccc(OC)c2)C[C@H]1C | > 100 µM | > 100 µM |  |  | > 100 µM | > 100 µM | > 100 µM | > 100 µM | > 100 µM | > 100 µM | > 100 µM | > 100 µM | > 100 µM | > 100 µM |  |  |  |  | 
O=C(c1ccccc1)c1c(-c2ccccc2)[nH]n(-c2ccc([N+](=O)[O-])cc2)c(=O)c1=O | > 100 µM | 88 µM |  | > 100 µM | > 100 µM | > 100 µM | > 100 µM | > 100 µM | > 100 µM | > 100 µM | > 100 µM | > 100 µM | > 100 µM | > 100 µM |  |  |  |  | 
COc1ccc(C(=O)C(CO)Oc2ccccc2OC)cc1OC (stereo not drawn) | > 100 µM | > 100 µM | > 100 µM | > 100 µM |  | > 100 µM | > 100 µM | > 100 µM | > 100 µM |  | > 100 µM |  |  |  |  |  |  |  | 
COc1ccc2c(c1)CC[C@@H]1[C@@H]2CC[C@]2(C)C(=O)/C(=C/c3ccc(OC)c(OC)c3)C[C@@H]12 |  | > 100 µM |  |  | > 100 µM | > 100 µM | > 100 µM | > 100 µM |  |  | > 100 µM | > 100 µM | > 100 µM | > 100 µM |  |  |  |  | 
CNC(=S)N/N=C(C)\C(=N/NC(=S)NC)c1ccccc1 | > 100 µM | > 100 µM | > 100 µM |  | > 100 µM | > 100 µM |  | > 100 µM |  | > 100 µM |  | > 100 µM | > 100 µM |  |  |  |  |  | 
COc1cc(/C=C2\C[C@H]3[C@@H]4CC=C5C[C@@H](O)CC[C@]5(C)[C@H]4CC[C@]3(C)C2=O)cc(OC)c1OC | > 100 µM | > 100 µM | 53.8 µM |  | > 100 µM | 47.3 µM | 2.25 µM | > 100 µM | > 100 µM | 87.1 µM | > 100 µM | > 100 µM | > 100 µM |  |  |  |  |  | 
